Source: patent publication US5399562A, “Indolones useful as serotonergic agents” (G. D. Searle & Co., priority 1994, dated 1995)
pEC50, pKi: −log10 of the molar value. Counter-ions that a name gives are not always drawn.

Assays:
5-HT4 receptor [1] = molecular target: 5-HT4 receptor (Rattus norvegicus, UniProt Q62758); assay: cell-based; conditions: rat esophagus TMM contracted with carbachol (3 μM), 37° C., cumulative addition; read-out: 5-HT4 Agonism (Rat TMM) In Vitro Assay: EC50 values
Experimental: (§1) The 5-HT4 agonist activity was determined in the in vitro rat tunica muscularis mucosae (TMM) assay described herein. (Baxter et al., Naunyn Schmied Arch. Pharmacol, 1991, 343, 439). […] One with skill in the art could determine the activity of the compounds of the present invention using the methodology of these assays, described herein, without undue experimentation.
Agonist activity was determined utilizing relaxation of carbachol-contracted rat tunica muscularis mucosae (TMM). One 2 cm segment of intrathoracic esophagus proximal to the diaphragm was removed from male rats, weighing approximately 300 gm, and the outer muscle layers removed. The inner tunica muscularis mucosa was mounted under 0.2-0.3 g of tension in a tissue bath containing oxygenated Tyrode's solution at 37° C. […] Following a 30 min equilibrium period, tissues were isometrically contracted with carbachol (3 μM) to obtain a tonic contraction. A stable plateau was obtained within 20 min when test compound was added cumulatively to relax the muscle strip. EC50 values were obtained for each compound in tissues from 5 rats.

myenteric neurons = conditions: Nemeth and Gullikson 1989; cited from earlier work
5-HT4 receptors = conditions: Craig and Clarke; cited from earlier work
5-HT4 receptor [2] = conditions: Dumuis et al. 1989, mouse embryonic colliculi neurons; cited from earlier work
dogs = conditions: cited from earlier work; for antroduodenal motility in dogs: Van Nueten et al. 1989
5-HT3 receptor = molecular target: T1, 5-HT3 receptor (Rattus norvegicus, UniProt P35563); assay: 5-HT3 radioligand receptor binding assay ([3H]-GR65630), rat brain cortex membranes
T1 construct: Brain cortices were obtained from male rats and a membrane fraction prepared by standard techniques; from tissue; host or cells: male rat brain cortex membranes
T1 sequence (P35563 24-483): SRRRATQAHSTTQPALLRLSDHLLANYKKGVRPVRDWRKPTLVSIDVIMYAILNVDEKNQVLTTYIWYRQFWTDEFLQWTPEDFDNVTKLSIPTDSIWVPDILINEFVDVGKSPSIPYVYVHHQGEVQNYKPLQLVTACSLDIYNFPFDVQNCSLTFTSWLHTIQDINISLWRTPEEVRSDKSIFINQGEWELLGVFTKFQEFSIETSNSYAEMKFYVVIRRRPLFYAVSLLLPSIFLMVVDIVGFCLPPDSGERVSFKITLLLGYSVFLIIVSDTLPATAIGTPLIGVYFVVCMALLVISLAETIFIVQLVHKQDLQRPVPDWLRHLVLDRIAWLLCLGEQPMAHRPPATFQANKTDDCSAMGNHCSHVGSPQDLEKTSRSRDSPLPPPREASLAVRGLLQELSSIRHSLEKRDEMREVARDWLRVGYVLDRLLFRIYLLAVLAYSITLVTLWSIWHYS
Experimental: as §1
Procedure: GR65630 binds to the 5-HT3 receptor. Brain cortices were obtained from male rats and a membrane fraction prepared by standard techniques. 0.04 mg of membrane prep was incubated with 0.2 nM [^3 H]-GR65630 for 66 minutes at 22° C. […] Membranes were filtered and washed 3 times and the filters were counted to determine [^3 H]-GR65630 specifically bound. [Kilpatrick GJ, Jones BJ and Tyers MB, Identification and Distribution of 5-HT3 Receptors in Rat Brain Using Radioligand Binding Assay, Nature, 330, 746-748 (1987)].

man [3] = conditions: Talley et al. 1989, man; cited from earlier work
gastric emptying [4] = conditions: Gidda et al. 1988; cited from earlier work
man [5] = conditions: Gore et al. 1990, man; cited from earlier work
gastric emptying [6] = conditions: Buchheit et al. 1985; cited from earlier work
[7] = test system: guinea pig stomach muscle strips; conditions: cited from earlier work; for guinea pig stomach muscle strip contraction in vitro: Buchheit et al. 1985
GI tract = conditions: various animal models; cited from earlier work
5-HT3 = conditions: in vivo; cited from earlier work

5-HT4 receptor (Rattus norvegicus, UniProt Q62758), sequence (Q62758 whole entry): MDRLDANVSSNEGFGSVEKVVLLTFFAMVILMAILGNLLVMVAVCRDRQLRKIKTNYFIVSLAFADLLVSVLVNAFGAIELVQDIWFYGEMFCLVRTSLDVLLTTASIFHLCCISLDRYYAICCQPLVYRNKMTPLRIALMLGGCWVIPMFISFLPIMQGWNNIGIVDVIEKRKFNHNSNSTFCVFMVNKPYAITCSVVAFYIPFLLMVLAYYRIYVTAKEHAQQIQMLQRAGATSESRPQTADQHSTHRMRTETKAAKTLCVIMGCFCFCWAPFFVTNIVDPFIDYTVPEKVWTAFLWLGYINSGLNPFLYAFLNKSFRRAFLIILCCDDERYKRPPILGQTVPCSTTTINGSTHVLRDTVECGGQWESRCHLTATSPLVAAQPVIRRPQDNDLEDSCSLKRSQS

CC1(C)C(=O)N(C(=O)NC[C@@H]2CCN3CCC[C@@H]23)c2ccccc21 (relative stereo) [Example 8, Exo-2,3-dihydro-3,3-dimethyl-N-[(hexahydro-1H-pyrrolizin-1S-yl)methyl]-2-oxo-1H-indole-1carboxamide, hydrate hydrochloride]
pEC50 (5-HT4 receptor [1]): < 5.00

COc1cc(N)c(Cl)cc1C(=O)NC1CCN2CCCC1C2 (centres unmarked) [BRL-24924]
ability to depolarize myenteric neurons, relation to 5-HT3 antagonism (myenteric neurons): unrelated to their properties of 5-HT3 antagonism
peristaltic reflex evoked, receptor mechanism (5-HT4 receptors): mediated through agonism at 5-HT4 receptors
prokinetic activity, correlation with agonist activity at 5-HT4 receptor (5-HT4 receptor [2]): correlate with agonist activity

COc1cc(N)c(Cl)cc1C(=O)NC1CCN(CCCOc2ccc(F)cc2)CC1OC (centres unmarked) [Cisapride]
ability to depolarize myenteric neurons, relation to 5-HT3 antagonism (myenteric neurons): unrelated to their properties of 5-HT3 antagonism
prokinetic activity, correlation with agonist activity at 5-HT4 receptor (5-HT4 receptor [2]): correlate with agonist activity
antroduodenal motility in dogs (dogs): enhanced

CN1[C@@H]2CC[C@H]1C[C@@H](NC(=O)N1C(=O)C(C)(C)c3ccccc31)C2 [Example 1, Endo-2,3-dihydro-3,3-dimethyl-N-(8-methyl-8-azabicyclo[3.2.1]octan-3-yl)-2-oxo-1H-indole-1-carboxamide, hydrochloride hydrate]
pKi (5-HT3 receptor): 8.40
pEC50 (5-HT4 receptor [1]): 5.92

CN1[C@@H]2CC[C@H]1C[C@@H](NC(=O)N1C(=O)C3(CC3)c3ccccc31)C2 [Example 2, Endo-1',2'-dihydro-N-(8-methyl-8-azabicyclo[3.2.1 octan-3-yl)-2'-oxo-spiro[cyclopropane-1,3'-(3'H)-indole]-1'-carboxamide, hydrate hydrochloride]
pKi (5-HT3 receptor): 8.39
pEC50 (5-HT4 receptor [1]): 6.10

O=C(N[C@@H]1[C@@H]2CC3C[C@H]1CN(C3)C2)N1C(=O)C2(CC2)c2ccccc21 [Example 3, Anti-N-(1-azatricyclo[3.3.1.1^3,7]decan-4-yl)-2'-oxo-spiro[cyclopropane-1,3'-[3'H]indole]-1'(2'H)-carboxamide, monohydrochloride]
pEC50 (5-HT4 receptor [1]): 5.65

O=C(N[C@H]1[C@@H]2CC3C[C@H]1CN(C3)C2)N1C(=O)C2(CC2)c2ccccc21 [Example 4, Syn-N-(1-azatricyclo[3.3.1.1^3,7]decan-4-yl)-2'-oxo-spiro[cyclopropane-1,3'-[3'H]indole]-1'(2'H)-carboxamide, monohydrochloride]
pEC50 (5-HT4 receptor [1]): 5.60

O=C(NCC12CCN(CC1)CC2)N1C(=O)C2(CC2)c2ccccc21 [Example 5, N-(1-azabicyclo[2.2.2]octan-4-ylmethyl)-2'-oxo-spiro[cyclopropane-1,3'-[3'H]indole]-1'(2'H)-carboxamide, monohydrochloride]
pEC50 (5-HT4 receptor [1]): < 5.00

O=C(NCC12CCCN1CCC2)N1C(=O)C2(CC2)c2ccccc21 [Example 6, 2'-oxo-N-[(hexahydro-1H-pyrrolizin-7a(5H)-yl)-methyl]spiro[cyclopropane-1,3'-[3'H]indole]1'(2'H)carboxamide, monohydrochloride]
pEC50 (5-HT4 receptor [1]): < 5.00

O=C(NCCC12CCCN1CCC2)N1C(=O)C2(CC2)c2ccccc21 [Example 7, 2'-oxo-N-[2-(hexahydro-1H-pyrrolizin-7a(5H)yl)ethyl]spiro[cyclopropane-1,3'-[3'H]indole-1'(2'H)-carboxamide, monohydrochloride]
pEC50 (5-HT4 receptor [1]): 5.10

Cc1nccn1CC1CCc2c(c3ccccc3n2C)C1=O (centres unmarked) [GR38032]
effect on GI transit in man (conclusion) (man [3]): does not have a major effect on GI transit in man
mouth-to-cecum transit times (man [3]): did not alter
small intestinal transit times (man [3]): did not alter
gastric emptying (gastric emptying [4]): enhanced
GI transit (man [5]): failed to accelerate
colonic transit in man (man [5]): slowed

Cc1[nH]cnc1CCC(=O)c1cn(C)c2ccccc12 [GR65630]
Bmax (5-HT3 receptor; [3H]-GR65630 radioligand, rat brain cortex membranes): 154 fmol/mg protein
% Specific Binding (5-HT3 receptor; [3H]-GR65630 radioligand, non-specific binding with 1 uM ICS 205-930): 70%

CN1[C@@H]2CC[C@H]1C[C@@H](OC(=O)c1c[nH]c3ccccc13)C2 [ICS 205-930]
gastric emptying (gastric emptying [4]): enhanced
gastric emptying rates in vivo (gastric emptying [6]): increases
guinea pig stomach muscle strip contraction in vitro [7]: enhanced
effect on responses to cisapride when coadministered (dogs; Van Nueten et al. 1989, coadministered with cisapride): did not affect
antroduodenal motility in dogs (dogs): did not

CN1[C@@H]2CC[C@H]1C[C@@H](OC(=O)c1cc(Cl)cc(Cl)c1)C2 [MDL 72222]
gastric emptying rates in vivo (gastric emptying [6]): increases
guinea pig stomach muscle strip contraction in vitro [7]: enhanced

NCCc1c[nH]c2ccc(O)cc12 [Serotonin, 5-hydroxytryptamine]
peristalsis in the GI tract (GI tract): promote peristalsis
peristaltic reflex evoked, receptor mechanism (5-HT4 receptors): mediated through agonism at 5-HT4 receptors

CCN(CC)CCNC(=O)c1cc(Cl)c(N)cc1OC [metoclopramide]
gastric emptying rates in vivo (gastric emptying [6]): increases
guinea pig stomach muscle strip contraction in vitro [7]: enhanced
electrical-field stimulated contractions in guinea pig stomach strips ([7]; Gunning and Naylor 1985): enhanced
5-HT3-mediated Bezold Jarisch reflex (5-HT3): blocks

COc1cc(N)c(Cl)cc1C(=O)NC1CN2CCC1CC2 (centres unmarked) [zacopride]
gastric emptying (gastric emptying [4]): enhanced
